Patent US20240067651A1 (Biohaven Therapeutics Ltd., priority 2019, published 2024)

Tests used:
[1] = Stability in Simulated Gastric Fluid (SGF); type: in vitro ADME; design: key: % parent compound remaining relative to 0-minute sample
Method in brief: (§1)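 Compound at 2 μg/mL final was incubated at 37° C with orbital shaking in SGF containing pepsin (pH 1.2) or SIF containing pancreatin (pH 6.8), sampled from 0 to 60 minutes. Parent remaining was measured by LC-MS/MS relative to the 0-minute sample; half-life came from ln(% remaining) versus time when enough points existed.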

[2] = Caco-2 Permeability Assay; type: in vitro ADME, human; conditions: human
Method in brief: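 Caco-2 monolayers cultured 21 days (TEER >600 […]); test article at 10 μM in HBSS/HEPES pH 7.4 transport medium, dosed apical or basolateral, ±Pgp inhibitor. Incubated 90 min at 37 °C; both compartments quantified by LC-MS/MS. Papp (A→B, B→A), efflux ratio and % recovery calculated.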

[3] = Stability in Simulated Intestinal Fluid (SIF); type: in vitro ADME; design: key: % parent compound remaining relative to 0-minute sample
Method in brief: as §1

Plasma Stability = type: in vitro ADME, human
Method in brief: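 Compounds incubated at 1 μM in fresh human plasma for 1 hour at 37° C, then protein-precipitated with acetonitrile/formic acid containing internal standard. Remaining parent measured by LC-MS/MS in triplicate, expressed as percent of control remaining.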

[4] = % remaining at 1 h in simulated gastric fluid, the 15th table
[5] = Caco-2, pH 7.4, Caco-2 monolayer, the 15th table
[6] = % remaining at 1 h in simulated intestinal fluid, the 15th table
[7] = % remaining at 1 h in human plasma, the 15th table
[8] = simulated gastric fluid, remaining at 1 h
[9] = Caco-2, pH 7.4, Caco-2 monolayer
[10] = simulated intestinal fluid, remaining at 1 h
[11] = % remaining at 1 h in simulated gastric fluid
[12] = % remaining at 1 h in simulated intestinal fluid
[13] = % remaining at 1 h in human plasma
[14] = bare number, unit or time not given

For `CCN(C(=O)OCSc1nc(=O)c2c(ccn2COC(=O)N(CC)C(C)C)n1CCOC(C)C)C(C)C` [Example 189], the SGF [1, 4] was 99% @ 1 h, the Papp at 90 min, 10 µM [2, 5] was 30.6 ×10⁻⁶ cm/s and the SIF [3, 6] was 97% @ 1 h. For the same molecule, the “human Plasma stability” value (Plasma Stability; [7]) was 98% @ 1 h.
In the case of `CSCC[C@@H](NC(=O)OC(C)(C)C)C(=O)NCCOCCOC(=O)OCn1ccc2c1c(=O)[nH]c(=S)n2CCOC(C)C` [Example 389, (2R)-2-{[(tert-butoxy)carbonyl]amino}-4-(methylsulfanyl)-N-[2-(2-{[{{4-oxo-1-[2-(propan-2-yloxy)ethyl]-2-sulfanylidene-1H,2H,3H,4H,5H-pyrrolo[3,2-d]pyrimidin-5-yl}methoxy)carbonyl]oxy}ethoxy)eth-yl]butanamide], the SGF [1, 8] is reported as 98% remaining, the Papp at 90 min, 10 µM [2, 9] is reported as 5.94 ×10⁻⁶ cm/s and the SIF [3, 10] is reported as 60% remaining. The “human Plasma stability” value (Plasma Stability; human plasma, remaining at 1 h) was 1% remaining.
For `CCCCCCOC(=O)OCn1c(=O)c2c(ccn2COC(=O)OCCCCCC)n(CCOC(C)C)c1=S` [Example 215], the SGF ([1]; % remaining at 1 h in simulated gastric fluid, the 17th table) was 94% remaining, the Papp at 90 min, 10 µM ([2]; Caco-2, pH 7.4, Caco-2 monolayer, the 17th table) was 0.214 ×10⁻⁶ cm/s and the SIF ([3]; % remaining at 1 h in simulated intestinal fluid, the 17th table) was 1% remaining. For the same molecule, the “human Plasma stability” value (Plasma Stability; % remaining at 1 h in human plasma, the 17th table) was 88% remaining.
`CC(C)NC(=O)OCSc1nc(=O)c2c(ccn2C(=O)NC(C)C)n1CCOC(C)C` [Example 195] showed an SGF [1, 4] of 100% remaining, a Papp at 90 min, 10 µM [2, 5] of 30 ×10⁻⁶ cm/s and an SIF [3, 6] of 99% remaining. For the same molecule, the “human Plasma stability” value (Plasma Stability; [7]) was 97% remaining.
For `CC(C)OCCn1c(=S)[nH]c(=O)c2c1ccn2COC(=O)[C@H]1CCN(C(=O)OC(C)(C)C)C1` [Example 130], the SGF [1, 11] was 61% remaining, the Papp at 90 min, 10 µM [2, 9] was 17.6 ×10⁻⁶ cm/s and the SIF [3, 12] was 64% remaining. The “human Plasma stability” value (Plasma Stability; [13]) was 4% remaining.
With `CC(C)OCCn1c(=S)[nH]c(=O)c2c1ccn2COC(=O)CCNC(=O)[C@@H](N)Cc1c[nH]c2ccccc12.O=C(O)C(F)(F)F` [Example 52] the SGF [1, 11] was 95% remaining, the Papp at 90 min, 10 µM [2, 9] was 0.23 ×10⁻⁶ cm/s and the SIF [3, 12] was 81% remaining. For the same molecule, the “human Plasma stability” value (Plasma Stability; [13]) was 61% remaining.
In the case of `CC(C)C[C@@H](N)C(=O)OCCCCC(=O)OCn1ccc2c1c(=O)[nH]c(=S)n2CCOC(C)C.O=C(O)C(F)(F)F` [Example 350, trifluoroacetic acid 5-oxo-5-({4-oxo-1-[2-(propan-2-yloxy)ethyl]-2-sulfanylidene-1H, 2H,3H,4H,5H-pyrrolo[3,2-d]pyrimidin-5-yl}methoxy)pentyl (2R)-2-amino-4-methylpentanoate], the SGF [1, 8] is reported as 29% remaining, the Papp at 90 min, 10 µM [2, 9] is reported as 0.0782 ×10⁻⁶ cm/s and the SIF [3, 10] is reported as 52% remaining. For the same molecule, the “human Plasma stability” value (Plasma Stability; human plasma, remaining at 1 h) was 44% remaining.
Molecule `CC(C)OCCn1c(=S)n(COC(=O)[C@@H](N)C(C)C)c(=O)c2c1ccn2COC(=O)[C@@H](N)C(C)C.O=C(O)C(F)(F)F.O=C(O)C(F)(F)F` [Example 297, bis(trifluoroacetic acid) [3-({[(2S)-2-amino-3-methylbutanoyl]oxy}methyl)-4-oxo-1-[2-(propan-2-yloxy)ethyl]-2-sulfanylidene-1H,2H,3H,4H,5H-pyrrolo[3,2-d]pyrimidin-5-yl]methyl (2S)-2-amino-3-methylbutanoate] has an SGF ([1]; % remaining @ 1 h) of 100% @ 1 h, a Papp at 90 min, 10 µM ([2]; Caco-2, pH 7.4) of 0.462 ×10⁻⁶ cm/s and an SIF ([3]; % remaining @ 1 h) of 6% @ 1 h. For the same molecule, the “human Plasma stability” value (Plasma Stability; % remaining @ 1 h) was 6% @ 1 h.
Work on `CC(C)C[C@@H](NC(=O)OC(C)(C)C)C(=O)OCSc1nc(=O)c2c(ccn2COC(=O)[C@@H](CC(C)C)NC(=O)OC(C)(C)C)n1CCOC(C)C` [Example 318, {[5-({[(2R)-2-{[(tert-butoxy)carbonyl]amino}-4-methylpentanoyl]oxy}methyl)-4-oxo-1-[2-(propan-2-yloxy)ethyl]-1H,4H,5H-pyrrolo[3,2-d]pyrimidin-2-yl]sulfanyl}methyl (2R)-2-{[(tert-butoxy)carbonyl]amino}-4-methylpentanoate] yielded an SGF ([1]; % remaining @ 1 h) of 81%@ 1 h, a Papp at 90 min, 10 µM ([2]; Caco-2, pH 7.4) of 25.4 ×10⁻⁶ cm/s and an SIF ([3]; % remaining @ 1 h) of 2%@ 1 h. The “human Plasma stability” value (Plasma Stability; % remaining @ 1 h) was 85%@ 1 h.
Work on `CC(C)OCCn1c(=S)n(COC(=O)CCCCOC(=O)[C@H](N)C(C)C)c(=O)c2c1ccn2COC(=O)CCCCOC(=O)[C@H](N)C(C)C.O=C(O)C(F)(F)F.O=C(O)C(F)(F)F` [Example 339, bis(trifluoroacetic acid) (3-{[(5-{[(2R)-2-amino-3-methylbutanoyl]oxy}pentanoyl)oxy]methyl}-4-oxo-1-[2-(propan-2-yloxy)ethyl]-2-sulfanylidene-1H,2H,3H,4H,5H-pyrrolo[3,2-d]pyrimidin-5-yl)methyl 5-{[(2R)-2-amino-3-methylbutanoyl]oxy}pentanoate] yielded an SGF [1, 14] of 99, a Papp at 90 min, 10 µM ([2]; Caco-2, pH 7.4) of 3.86 ×10⁻⁶ cm/s and an SIF [3, 14] of 72. For the same molecule, the “human Plasma stability” value (Plasma Stability; % remaining @ 1 h) was 44% remaining.
